Measurements: patent US11873298B2, “Compounds and uses thereof” (JANSSEN PHARMACEUTICA NV, priority 2017, dated 2024)

Tests used:
[1] = system: yeast strains expressing the human ApoE4; assay: Yeast ApoE4 toxicity rescue assay (OD600 growth); conditions: 24 h; for Emax: read-out: ApoE4 Emax; for EC50: read-out: ApoE4 EC50
Text: The induced expression of α-synuclein and ApoE4 confers cytotoxicity, thus enabling the identification of compounds that can restore cell viability. This instantaneous/synchronous induction of α-synuclein and ApoE4 can be achieved due to the following expression control. In glucose-containing media, gene expression from the GAL1 promoter is ‘off’ and actively repressed by additional epigenetic factors. In raffinose, expression is ‘off’, but the promoter not actively repressed. Upon transition to galactose-containing media, the promoter is instantaneously turned ‘on’ to achieve robust and synchronous induction of α-synuclein or ApoE4 expression. This highly regulated induction provides a robust window for the determination of both efficacy (amplitude of protective effect) and potency (concentration of protective effect) of cytoprotective compounds.
Re-suspended compound stocks were subsequently arrayed into 384 well compound plates using automated pipetting. All other wells not receiving stock compound were filled with 10 μL of 100% DMSO using an automated plate filler (Multidrop Combi). An 11 point, 2-fold serial dilution was then performed using the robotic platform. Compound assay plates were covered with foil and stored at −20° C. until use.
Each strain was handled according to standard protocols and cultured in media composed of CSM (complete synthetic media), YNB (yeast nitrogenous base), and a 2% (w/v) carbon source (either glucose, raffinose, or galactose).
In a standard yeast assay, a single-use aliquot of cells was thawed on ice and diluted into CSM/glucose (5 mL). Cultures were grown for 8 hours at 30° C. This pre-growth enables the yeast to exit the thaw and begin to grow without expressing aSyn or ApoE4. After 8 hours, cell density (OD600) was determined and cultures diluted to an OD600 of 0.01 in CSM/raffinose for an overnight culture phase at 30° C. During this period, the active glucose repression of the GAL1 promoter was relieved; however, expression of the α-Syn/ApoE4 genes were not yet induced. After ˜16 hours of growth, cultures attain an OD600 of 0.4-0.8 and were ready to apply to assay plates containing compound.
Compound profiling assays were executed in clear-bottom 384 well plates. First, compound plates were thawed at room temperature for 45′, centrifuged at 1,000×g for 1 minute, and the foil removed. Clear 384 well assay plates were then filled with 15 μL of CSM/galactose. […] The pin tool was washed iteratively with both 50% DMSO and 100% ethanol between each assay plate. After delivering compound to each assay plate, the overnight CSM/raffinose aSyn or ApoE4 cultures were added at a 2X cell density (0.04 for aSyn and 0.08 for ApoE4) in CSM/galactose to achieve a final assay OD600 of 0.02 and 0.04 for aSyn and ApoE, respectively. The cultures (15 μL per well) were then dispensed to the compound -containing 384 well assay plates using an automated plate filler. Plates were incubated in a humidified 30° C. incubator for 40 or 24 hours for aSyn and ApoE4, respectively. The ODsoo of each assay plate was then read with a microplate reader (e.g., Perkin Elmer Envision).
The efficacy and potency of compounds were calculated according to the following. Raw data (OD600 values) were first background corrected to account for OD600 contributed by the plate and media itself. The efficacy (percent above DMSO, herein referred to as “Emax”) was calculated according to the equation: (Experimental well−DMSO control well)/(DMSO control well)*100. […] Normalized dose-response data was fit with a logistic regression curve using Spotfire (TIBCO), or similar curve-fitting software package. EC50 values were then reported along with EMax to provide both efficacy and potency measures for each analog and enable further compound design.

Ole1 = biological target: T1, Ole1 (Saccharomyces cerevisiae, UniProt P21147); assay: Growth inhibition of yeast strain expressing Ole1 as sole desaturase; format: cell-based; conditions: yeast strain expressing Ole1 as sole desaturase
T1 construct: expressed in transfected cells; host or cells: S. cerevisiae ole1Δ strain (W303 pdr1Δ pdr3Δ background), plasmid pRS316 with TDH3 promoter and CYC1 terminator
T1 sequence (P21147 1-510): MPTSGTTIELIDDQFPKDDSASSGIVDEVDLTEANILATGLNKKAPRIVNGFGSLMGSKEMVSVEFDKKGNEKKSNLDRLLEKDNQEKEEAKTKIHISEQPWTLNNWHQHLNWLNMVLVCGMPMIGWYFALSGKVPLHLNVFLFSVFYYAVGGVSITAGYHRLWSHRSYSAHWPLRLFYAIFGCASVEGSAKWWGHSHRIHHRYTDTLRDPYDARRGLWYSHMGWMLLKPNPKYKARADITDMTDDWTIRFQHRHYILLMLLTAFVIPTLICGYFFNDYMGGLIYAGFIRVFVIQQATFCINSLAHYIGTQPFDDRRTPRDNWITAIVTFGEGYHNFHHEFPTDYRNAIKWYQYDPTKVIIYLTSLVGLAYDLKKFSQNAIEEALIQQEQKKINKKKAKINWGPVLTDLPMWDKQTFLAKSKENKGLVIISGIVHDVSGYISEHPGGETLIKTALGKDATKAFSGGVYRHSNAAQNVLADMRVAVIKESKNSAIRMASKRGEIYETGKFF
Summary of the method: (§1)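 Yeast ole1Δ strain (W303 pdr1Δ pdr3Δ background) carrying plasmid-borne Ole1, SCD1 or SCD5 as sole desaturase was grown in uracil-lacking media, pre-cultured in raffinose for 6 h, then seeded in galactose medium with compound in DMSO. Growth was read as OD600 after 30° C. incubation: 24 h for Ole1, 40 h for SCD1/SCD5.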

SCD1 = biological target: T2, SCD1 (Homo sapiens, UniProt O00767); assay: Growth inhibition of humanized yeast strain expressing SCD1 as sole desaturase; format: cell-based; conditions: humanized yeast strain expressing SCD1
T2 construct: host or cells: S. cerevisiae ole1Δ strain (W303 pdr1Δ pdr3Δ background), plasmid pRS316 with TDH3 promoter and CYC1 terminator
T2 sequence (O00767 1-359): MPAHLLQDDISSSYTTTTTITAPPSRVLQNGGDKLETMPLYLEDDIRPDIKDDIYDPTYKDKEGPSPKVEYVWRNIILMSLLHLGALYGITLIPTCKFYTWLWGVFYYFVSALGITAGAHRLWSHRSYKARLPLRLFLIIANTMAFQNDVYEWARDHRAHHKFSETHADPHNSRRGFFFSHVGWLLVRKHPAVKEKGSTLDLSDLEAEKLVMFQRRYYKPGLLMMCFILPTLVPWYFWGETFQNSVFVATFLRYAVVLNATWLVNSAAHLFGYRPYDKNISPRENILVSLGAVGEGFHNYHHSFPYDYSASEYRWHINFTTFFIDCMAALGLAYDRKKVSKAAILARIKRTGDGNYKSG
Summary of the method: as §1

[2] = system: yeast strains expressing the human α-synuclein; assay: Yeast α-synuclein toxicity rescue assay (OD600 growth); conditions: 40 h; for EC50: read-out: α-Syn EC50; for Emax: read-out: α-Syn Emax
SCD5 = biological target: T3, SCD5 (Homo sapiens, UniProt Q86SK9); assay: Growth inhibition of humanized yeast strain expressing SCD5 as sole desaturase; format: cell-based; conditions: humanized yeast strain expressing SCD5
T3 construct: host or cells: S. cerevisiae ole1Δ strain (W303 pdr1Δ pdr3Δ background), plasmid pRS316 with TDH3 promoter and CYC1 terminator
T3 sequence (Q86SK9 1-330): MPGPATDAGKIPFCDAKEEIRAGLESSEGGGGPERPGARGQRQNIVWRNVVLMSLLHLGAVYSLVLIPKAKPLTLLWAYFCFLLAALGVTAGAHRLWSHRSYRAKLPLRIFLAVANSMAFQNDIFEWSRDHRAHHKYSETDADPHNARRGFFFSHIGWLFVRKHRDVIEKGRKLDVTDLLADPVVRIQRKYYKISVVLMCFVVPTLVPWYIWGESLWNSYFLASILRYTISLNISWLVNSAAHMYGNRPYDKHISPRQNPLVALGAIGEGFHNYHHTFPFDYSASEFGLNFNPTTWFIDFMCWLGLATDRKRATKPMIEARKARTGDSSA
Summary of the method: as §1

## COc1ccc(-c2noc(C3CCN(C(=O)[C@H](C)NC(=O)c4ccccc4)CC3)n2)cc1OC (single isomer, unassigned) [Compound 59]
[1]
  Emax: 47%
Ole1
  IC50: > 45 µM
  OLE1 % Max Inhibition: 105.25%
SCD1
  IC50: > 45 µM
  SCD1 % Max Inhibition: 79.13%
[2]
  EC50: 15.7 µM
  Emax: 82%
SCD5
  IC50: > 45 µM
  SCD5 % Max Inhibition: 59.32%

## COc1ccc(-c2noc(C3CCN(C(=O)[C@@H](C)NC(=O)c4ccccc4)CC3)n2)cc1OC (single isomer, unassigned) [Compound 60]
[1]
  EC50: 0.119 µM
  Emax: 795%
Ole1
  IC50: > 45 µM
  OLE1 % Max Inhibition: 2.91%
SCD1
  IC50: > 45 µM
  SCD1 % Max Inhibition: 72.03%
[2]
  EC50: 0.032 µM
  Emax: 605%
SCD5
  IC50: 41.1 µM
  SCD5 % Max Inhibition: 57.19%

## Cc1ccc(-c2noc(C3CCN(C(=O)[C@H]4CC(=O)N(c5ccc(C)c(C)c5)C4)CC3)n2)cc1 (single isomer, unassigned) [Compound 61]
[1]
  EC50: 19.4 µM
  Emax: 465%
Ole1
  IC50: 40.9 µM
  OLE1 % Max Inhibition: 71.50%
SCD1
  IC50: > 45 µM
  SCD1 % Max Inhibition: 2.37%
[2]
  EC50: 19.7 µM
  Emax: 229%
SCD5
  IC50: > 45 µM
  SCD5 % Max Inhibition: 13.18%

## COc1ccc(-c2noc(C3CCN(C(=O)[C@@H]4CC(=O)N(c5ccc(C)c(C)c5)C4)CC3)n2)cc1 (single isomer, unassigned) [Compound 63]
[1]
  EC50: 13.4 µM
  Emax: 250%
Ole1
  IC50: > 45 µM
  OLE1 % Max Inhibition: 101.06%
SCD1
  IC50: 33.7 µM
  SCD1 % Max Inhibition: 62.04%
[2]
  EC50: 17.2 µM
  Emax: 68%
SCD5
  IC50: > 45 µM
  SCD5 % Max Inhibition: 9.39%

## COc1ccc(-c2noc(C3CCN(C(=O)[C@H]4CC(=O)N(c5ccc(C)c(C)c5)C4)CC3)n2)cc1OC (single isomer, unassigned) [compound 67]
[1]
  EC50: 17.4 µM
  Emax: 420%
Ole1
  IC50: > 45 µM
SCD1
  IC50: 40.7 µM
[2]
  EC50: 7.38 µM
  Emax: 255%
SCD5
  IC50: > 45 µM

## COc1ccc(-c2noc(C3CCN(C(=O)Cc4cncc(C)n4)CC3)n2)cc1OC [Compound 45]
[1]
  EC50: 29.3 µM
  Emax: 19%
[2]
  EC50: 26 µM
  Emax: 121%

## Cc1ccc(-c2noc(C3CCN(C(=O)C4CC(=O)N(c5ccc(C)c(C)c5)C4)CC3)n2)cc1 (centres unmarked) [compound 2]
Ole1
  IC50: > 45 µM
SCD1
  IC50: > 45 µM
[2]
  EC50: 8.57 µM
  Emax: 80%
SCD5
  IC50: > 45 µM

## COc1ccccc1-c1noc(C2CCN(C(=O)CNC(=O)c3ccccc3)CC2)n1 [compound 12]
Ole1
  IC50: > 45 µM
SCD1
  IC50: > 45 µM
[2]
  EC50: 16.2 µM
  Emax: 43%
SCD5
  IC50: > 45 µM

## COc1ccc(-c2noc(C3CCN(C(=O)C4CC(=O)N(c5ccccc5)C4)CC3)n2)cc1OC (centres unmarked) [compound 18]
[1]
  EC50: 1.51 µM
  Emax: 826%
Ole1
  IC50: > 45 µM
[2]
  EC50: 0.266 µM
  Emax: 452%
SCD5
  IC50: > 45 µM

## COc1ccc(-c2noc(C3CCN(C(=O)CN(C)C(=O)c4ccccc4)CC3)n2)cc1OC [compound 22]
[1]
  Emax: 372%
Ole1
  IC50: 40.5 µM
[2]
  EC50: 8.42 µM
  Emax: 334%
SCD5
  IC50: 30 µM

## COc1ccc(-c2noc(C3CCN(C(=O)[C@H]4CC(=O)N(c5ccccc5)C4)CC3)n2)cc1OC [compound 65]
[1]
  EC50: 0.987 µM
  Emax: 779%
Ole1
  IC50: > 45 µM
[2]
  EC50: 0.036 µM
  Emax: 643%

## COc1ccc(-c2noc(C3CCN(C(=O)[C@@H]4CC(=O)N(c5ccccc5)C4)CC3)n2)cc1OC [compound 66]
[1]
  EC50: 21.2 µM
  Emax: 790%
Ole1
  IC50: > 45 µM
[2]
  EC50: 11.1 µM
  Emax: 350%

## COc1ccc(-c2noc(C3CCN(C(=O)[C@@H]4CC(=O)N(c5ccc(C)c(C)c5)C4)CC3)n2)cc1OC [compound 68]
[1]
  EC50: 3.12 µM
  Emax: 775%
Ole1
  IC50: > 45 µM
[2]
  EC50: 1.86 µM
  Emax: 652%

## Cc1ccc(-c2nc(C3CCN(C(=O)[C@@H]4CC(=O)N(c5ccc(C)c(C)c5)C4)CC3)no2)cc1 [compound 72]
Ole1
  IC50: > 45 µM
SCD1
  IC50: 27.3 µM
[2]
  EC50: 12.7 µM
  Emax: 35%
SCD5
  IC50: 33 µM

## CC1(C)CC(=O)c2c(O)cc(OCC(=O)N3CCC(c4nc(-c5ccccc5)no4)CC3)cc2O1 [compound 76]
[1]
  EC50: 14.8 µM
  Emax: 162%
[2]
  EC50: 9.92 µM
  Emax: 76%

## COc1ccc(-c2noc(C3CCN(C(=O)COc4cc(O)c5c(c4)OC(C)(C)CC5=O)CC3)n2)cc1OC [compound 77]
[1]
  Emax: 436%
[2]
  Emax: 345%

## O=C(NCC(=O)N1CCC(c2nc(-c3ccccn3)no2)CC1)c1ccccc1 [compound 78]
Ole1
  IC50: 38.3 µM
SCD1
  IC50: > 45 µM
[2]
  EC50: 14.6 µM
  Emax: 38%
SCD5
  IC50: > 45 µM

## O=C(NC1CC1c1ccccc1)N1CCC(c2nc(-c3ccc4ccccc4n3)no2)CC1 (centres unmarked) [compound 82]
[1]
  EC50: 16.8 µM
  Emax: 40%

## CCOc1ccc(-c2noc(C3CCN(C(=O)C4CC(=O)N(c5ccccc5)C4)CC3)n2)cc1OC (centres unmarked) [compound 84]
[1]
  EC50: 0.956 µM
  Emax: 866%
[2]
  EC50: 0.06 µM
  Emax: 463%

## O=C(NCC(=O)N1CCC(c2nc(-c3ccc4cn[nH]c4c3)no2)CC1)c1ccccc1 [compound 88]
Ole1
  IC50: > 45 µM
SCD1
  IC50: 33.5 µM
[2]
  EC50: 9.04 µM
  Emax: 130%
SCD5
  IC50: > 45 µM

## Cc1nn(C)c2cc(-c3noc(C4CCN(C(=O)C5CC(=O)N(c6ccccc6)C5)CC4)n3)ccc12 (centres unmarked) [compound 89]
Ole1
  IC50: > 45 µM
SCD1
  IC50: > 45 µM
[2]
  EC50: 0.165 µM
  Emax: 580%
SCD5
  IC50: > 45 µM

## Cc1nn(C)c2cc(-c3noc(C4CCN(C(=O)[C@H]5CC(=O)N(c6ccccc6)C5)CC4)n3)ccc12 [compound 90]
Ole1
  IC50: > 45 µM
SCD1
  IC50: > 45 µM
[2]
  EC50: 1.65 µM
  Emax: 281%
SCD5
  IC50: > 45 µM

## Cc1nn(C)c2cc(-c3noc(C4CCN(C(=O)[C@@H]5CC(=O)N(c6ccccc6)C5)CC4)n3)ccc12 [compound 91]
Ole1
  IC50: > 45 µM
SCD1
  IC50: > 45 µM
[2]
  EC50: 0.107 µM
  Emax: 452%
SCD5
  IC50: > 45 µM

## CCOc1ccc(-c2noc(C3CCN(C(=O)c4cc(-c5ccccc5)no4)CC3)n2)cc1OC [compound 92]
Ole1
  IC50: > 45 µM
SCD1
  IC50: > 45 µM
[2]
  EC50: 2.5 µM
  Emax: 187%
SCD5
  IC50: > 45 µM

## Cc1n[nH]c2cc(-c3noc(C4CCN(C(=O)CNC(=O)c5ccccc5)CC4)n3)ccc12 [compound 93]
Ole1
  IC50: > 45 µM
SCD1
  IC50: > 45 µM
[2]
  EC50: 1.8 µM
  Emax: 626%
SCD5
  IC50: > 45 µM

## Cn1ncc2ccc(-c3noc(C4CCN(C(=O)CNC(=O)c5ccccc5)CC4)n3)cc21 [compound 94]
Ole1
  IC50: > 45 µM
SCD1
  IC50: > 45 µM
[2]
  EC50: 0.04 µM
SCD5
  IC50: 39.3 µM

## CCOc1ccc(-c2noc(C3CCN(C(=O)CNC(=O)c4ccccc4)CC3)n2)cc1C#N [compound 101]
Ole1
  IC50: > 45 µM
SCD1
  IC50: > 45 µM
[2]
  EC50: 1.18 µM
  Emax: 122%
SCD5
  IC50: > 45 µM

## Cc1nn(C)c2cc(-c3noc(N4CCN(C(=O)CNC(=O)c5ccccc5)CC4)n3)ccc12 [compound 102]
Ole1
  IC50: > 45 µM
SCD1
  IC50: > 45 µM
[2]
  EC50: 0.284 µM
  Emax: 411%
SCD5
  IC50: > 45 µM
